Test results as given in BindingDB's records for patent US20250154134 (Wigen Biomedicine Technology (Shanghai), 2025).

Target: Focal adhesion kinase 1 (Homo sapiens, UniProt Q05397)
Test: Inhibitory Activity Assay
Procedure: A compound serially diluted with DMSO was mixed with a FAK recombinant protein. After the mixture was left to stand at room temperature for 10 min, a biotin-labeled TK substrate (TK) and ATP were added. […] The inhibition percentage and IC50 of the compound were calculated compared to the DMSO control group.

Sequence of Focal adhesion kinase 1 (Q05397 whole entry): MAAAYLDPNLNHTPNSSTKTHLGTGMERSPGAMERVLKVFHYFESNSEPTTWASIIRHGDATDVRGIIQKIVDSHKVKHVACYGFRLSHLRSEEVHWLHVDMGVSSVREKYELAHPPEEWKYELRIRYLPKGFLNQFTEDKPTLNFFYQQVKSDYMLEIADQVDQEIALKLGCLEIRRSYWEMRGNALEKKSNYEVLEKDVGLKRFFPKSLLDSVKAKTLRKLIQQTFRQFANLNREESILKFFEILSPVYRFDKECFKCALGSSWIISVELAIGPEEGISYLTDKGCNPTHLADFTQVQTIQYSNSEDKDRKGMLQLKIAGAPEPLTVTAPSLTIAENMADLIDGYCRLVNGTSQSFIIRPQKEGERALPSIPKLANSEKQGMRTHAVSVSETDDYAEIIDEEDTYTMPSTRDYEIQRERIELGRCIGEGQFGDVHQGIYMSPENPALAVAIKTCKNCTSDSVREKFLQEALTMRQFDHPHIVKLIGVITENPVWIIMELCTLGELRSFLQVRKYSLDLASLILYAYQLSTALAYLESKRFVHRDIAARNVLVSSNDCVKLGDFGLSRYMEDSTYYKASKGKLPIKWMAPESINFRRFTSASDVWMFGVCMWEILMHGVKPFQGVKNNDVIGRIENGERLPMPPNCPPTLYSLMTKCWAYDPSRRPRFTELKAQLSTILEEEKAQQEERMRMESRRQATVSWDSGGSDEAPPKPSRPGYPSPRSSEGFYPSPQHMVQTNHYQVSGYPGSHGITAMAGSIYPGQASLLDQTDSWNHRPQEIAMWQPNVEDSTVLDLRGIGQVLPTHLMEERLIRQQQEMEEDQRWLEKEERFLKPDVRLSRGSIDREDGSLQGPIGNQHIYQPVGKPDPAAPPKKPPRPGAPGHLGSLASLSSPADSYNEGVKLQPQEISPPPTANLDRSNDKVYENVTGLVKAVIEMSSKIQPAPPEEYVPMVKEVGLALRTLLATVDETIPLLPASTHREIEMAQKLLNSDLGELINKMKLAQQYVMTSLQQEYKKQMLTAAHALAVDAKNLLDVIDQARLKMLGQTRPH

IC50 [nM] | SMILES
< 20 | COc1cc(C(=O)NC2CCNCC2)ccc1Nc1ncc(C(F)(F)F)c(Oc2cccc3c2C(=O)N(C)C32CC2)n1 [US20250154134, Compound 35]
< 20 | COc1cc(C(=O)NC2CCN(C)CC2)ccc1Nc1ncc(C(F)(F)F)c(Oc2cccc3c2C(=O)N(C)C32CC2)n1 [US20250154134, Compound 3]
< 20 | COc1cc(C(=O)NC2CCN(C)CC2)c(F)cc1Nc1ncc(Cl)c(Oc2cccc3c2C(=O)N(C)C32CCCC2)n1 [US20250154134, Compound 209]
< 20 | COc1cc(C(=O)NC2(C)CCN(C)CC2)ccc1Nc1ncc(Cl)c(Oc2cccc3c2C(=O)N(C)C32CC2)n1 [US20250154134, Compound 118]
